From the C3SDB collision cross section collection

Legend:
[1] = instrument: TW, calibrated with phosphatidylcholines (ESI+) and phosphatidylethanolamines (ESI-), doubly charged cardiolipins calibrated with poly-DL-…
[2] = instrument: DT, stepped-field
[3] = [M+H]+; instrument: TW

CCCCCC/C=C\CCCCCCCC(=O)OC[C@H](COP(=O)(O)OC[C@@H](O)COC(=O)CCCCCCCCCCCCCCC)OC(=O)CCCCCCC/C=C\CCCCCCCC [AcylPG(50:2)]
collision cross section (N2) ([1]; [M+Na]+): 333.1 Å² | collision cross section (N2) ([1]; [M-H]-): 322.71 Å²

CCCCCC/C=C\CCCCCCCC(=O)OC(COC(=O)CCCCCCC/C=C\CCCCCCCC)COP(=O)(O)OCC(O)COP(=O)(O)OCC(COC(=O)CCCCCCCCCCCCCCC)OC(=O)CCCCCCC/C=C\CCCCCCCC (centres undefined) [CL(68:3)]
collision cross section (N2) ([1]; [M-2H]2-): 407.14 Å²

CCCCCC/C=C\CCCCCCCC(=O)OC[C@H](O)COP(=O)(O)OC[C@@H](COC(=O)CCCCCCC/C=C\CCCCCC)OC(=O)CCCCCCCC1CC1CCCCCCCCCC (some centres undefined) [AcylPG(53:3)]
collision cross section (N2) ([1]; [M-H]-): 332.67 Å²

CCc1cccc(C)c1N(C(=O)CCl)C(C)COC (centres undefined) [Metolachlor]
collision cross section (N2) ([2]; [M+H]+): 161.46 Å² | collision cross section (N2) ([2]; [M+Na]+): 175.84 Å² | collision cross section (N2) [3]: 158.23 Å²

CCCCCCC1CC1CCCCCCCC(=O)OC[C@@H](O)COP(=O)([O-])OCC[NH3+] (some centres undefined) [LPE(17:1/0:0)]
collision cross section (N2) ([1]; [M+H]+): 212.27 Å² | collision cross section (N2) ([1]; [M+Na]+): 219.72 Å² | collision cross section (N2) ([1]; [M-H]-): 208.15 Å²

CCCCC1CC1CCCCCCCC(=O)O[C@H](CO)COP(=O)([O-])OCC[NH3+] (some centres undefined) [LPE(0:0/15:1)]
collision cross section (N2) ([1]; [M-H]-): 199.81 Å²

CCCCCC/C=C\CCCCCCCC(=O)OC(COC(=O)CCCCCCCCCCCCCCC)COP(=O)(O)OCC(O)COP(=O)(O)OCC(COC(=O)CCCCCCCCCCCCCCC)OC(=O)CCCCCCC/C=C\CCCCCCCC (centres undefined) [CL(66:2)]
collision cross section (N2) ([1]; [M+2K]2+): 426.8 Å² | collision cross section (N2) ([1]; [M-2H]2-): 402.26 Å²

CCCCCCCC/C=C\CCCCCCCC(=O)OCC(COP(=O)(O)O)OC(=O)CCCCCCC/C=C\CCCCCCCC (centres undefined) [PA(36:2)]
collision cross section (N2) ([1]; [M-H]-): 259.86 Å²

CCCCCC/C=C\CCCCCCCC(=O)OC[C@H](COP(=O)(O)OCCNC(=O)CCCCCCCCCCCCCCC)OC(=O)CCCCCCCCCCCCCCCCC [AcylPE(50:1)]
collision cross section (N2) ([1]; [M+Na]+): 330.1 Å² | collision cross section (N2) ([1]; [M-H]-): 323.73 Å²

CCCCCC/C=C\CCCCCCCC(=O)OC(COC(=O)CCCCCCCCCCCCC)COP(=O)(O)OCC(O)COP(=O)(O)OCC(COC(=O)CCCCCCCCCCCCCCC)OC(=O)CCCCCCC/C=C\CCCCCC (centres undefined) [CL(62:2)]
collision cross section (N2) ([1]; [M+2K]2+): 418.5 Å²

CCCCCC/C=C/CCCCCCCC(=O)OC[C@@H](O)COP(=O)(O)OCC(O)CO (some centres undefined) [LPG(16:1)]
collision cross section (N2) ([1]; [M-H]-): 210.68 Å²

CCCCCC/C=C\CCCCCCCC(=O)OC(COC(=O)CCCCCCCCCCCCCCC)COP(=O)(O)OCC(O)COP(=O)(O)OCC(COC(=O)CCCCCCCCCCCCC)OC(=O)CCCCCCCCCCCCCCC (centres undefined) [CL(62:1)]
collision cross section (N2) ([1]; [M+2K]2+): 419.8 Å²

CCCCCCCCCCCCCCCC(=O)OCC(COP(=O)(O)OCCN)OC(=O)CCCCCCCCCCCCCCC (centres undefined) [PE(32:0)]
collision cross section (N2) ([1]; [M+H]+): 272.49 Å² | collision cross section (N2) ([1]; [M-H]-): 257.29 Å²

CCCCCC/C=C\CCCCCCCC(=O)OCC(COP(=O)(O)OCC(O)CO)OC(=O)CCCCCCCCCCCCC (centres undefined) [PG(30:1)]
collision cross section (N2) ([1]; [M+Na]+): 268.07 Å²

CCCCCCCCCCCCCC(=O)O[C@H](CO)COP(=O)([O-])OCC[NH3+] [LPE(0:0/14:0)]
collision cross section (N2) ([1]; [M+H]+): 208.79 Å² | collision cross section (N2) ([1]; [M+Na]+): 213.66 Å² | collision cross section (N2) ([1]; [M-H]-): 198.83 Å²

CCCCCC/C=C\CCCCCCCC(=O)OCC(COP(=O)(O)O)OC(=O)CCCCCCC/C=C\CCCCCCCC (centres undefined) [PA(34:2)]
collision cross section (N2) ([1]; [M-H]-): 253.68 Å²

CCCCCC/C=C\CCCCCCCC(=O)OCC(COP(=O)(O)OCC(O)COP(=O)(O)OCC(COC(=O)CCCCCCCCCCCCCCC)OC(=O)CCCCCCC/C=C\CCCCCC)OC(=O)CCCCCCC/C=C\CCCCCC (centres undefined) [CL(64:3)]
collision cross section (N2) ([1]; [M-2H]2-): 397.47 Å²

CCCCCC/C=C\CCCCCCCC(=O)OCC(COP(=O)(O)OCCN)OC(=O)CCCCCCCC1CC1CCCCCCCC (centres undefined) [PE(35:2)]
collision cross section (N2) ([1]; [M+H]+): 275.82 Å² | collision cross section (N2) ([1]; [M-H]-): 265.69 Å²

CCCCCC/C=C/CCCCCCCC(=O)O[C@H](CO)COP(=O)([O-])OCC[NH3+] [LPE(0:0/16:1)]
collision cross section (N2) ([1]; [M+H]+): 208.94 Å² | collision cross section (N2) ([1]; [M+Na]+): 212.72 Å² | collision cross section (N2) ([1]; [M-H]-): 203.66 Å²

CCCCCCCCCCCCCCC(=O)OC[C@@H](O)COP(=O)([O-])OCC[NH3+] [LPE(15:0/0:0)]
collision cross section (N2) ([1]; [M+H]+): 209.91 Å² | collision cross section (N2) ([1]; [M+Na]+): 216.13 Å² | collision cross section (N2) ([1]; [M-H]-): 202.83 Å²

CCCCCCCCCCCCCCCC(=O)OC[C@@H](O)COP(=O)([O-])OCC[NH3+] [LPE(16:0/0:0)]
collision cross section (N2) ([1]; [M+H]+): 213.91 Å² | collision cross section (N2) ([1]; [M+Na]+): 220.01 Å² | collision cross section (N2) ([1]; [M-H]-): 206.89 Å²

CCCCCC/C=C\CCCCCCCC(=O)OCC(COP(=O)(O)OCC(O)COP(=O)(O)OCC(COC(=O)CCCCCCC/C=C\CCCCCC)OC(=O)CCCCCCC/C=C\CCCCCCCC)OC(=O)CCCCCCC/C=C\CCCCCC (centres undefined) [CL(66:4)]
collision cross section (N2) ([1]; [M-2H]2-): 401.68 Å²

CCCCCC/C=C\CCCCCCCC(=O)OC[C@H](COP(=O)(O)OC[C@@H](O)COC(=O)CCCCCCCCCCCCCCC)OC(=O)CCCCCCCCCCCCCC [AcylPG(47:1)]
collision cross section (N2) ([1]; [M+Na]+): 326 Å² | collision cross section (N2) ([1]; [M-H]-): 313.72 Å²

CCCCCCCC/C=C\CCCCCCCC(=O)OC(COC(=O)CCCCCCCCCCCCCCC)COP(=O)(O)OCC(O)CO (centres undefined) [PG(34:1)]
collision cross section (N2) ([1]; [M+Na]+): 281.03 Å² | collision cross section (N2) ([1]; [M-H]-): 270.03 Å²

CCCCCCCCCCCCCCCC(=O)OCC(COP(=O)(O)OCC(O)CO)OC(=O)CCCCCCCC1CC1CCCCCC (centres undefined) [PG(33:1)]
collision cross section (N2) ([1]; [M+Na]+): 280.56 Å² | collision cross section (N2) ([1]; [M-H]-): 266.36 Å²

CCCCCCCCCCCCCCCC(=O)OCC(COP(=O)(O)OCCN)OC(=O)CCCCCCCC1CC1CCCC (centres undefined) [PE(31:1)]
collision cross section (N2) ([1]; [M+H]+): 265.08 Å² | collision cross section (N2) ([1]; [M-H]-): 252.34 Å²

CCCCCC/C=C\CCCCCCCC(=O)OCC(COP(=O)(O)O)OC(=O)CCCCCCCCCCCCCCC (centres undefined) [PA(32:1)]
collision cross section (N2) ([1]; [M-H]-): 249.02 Å²

Cc1cc(NS(=O)(=O)c2ccc(N)cc2)no1 [Sulfamethoxazole]
collision cross section (N2) [3]: 146.3 Å²

Fc1ccc(cc1)N\3c2cc(c(F)cc2C(=O)C(/C(=O)O)=C/3)N4CCNCC4 [Sarafloxacine]
collision cross section (N2) [3]: 202 Å²

CN1C(/C(O)=N/c2ccccn2)=C(O)c2ccccc2S1(=O)=O [Piroxicam]
collision cross section (N2) [3]: 170.9 Å²

CSc1nnc(C(C)(C)C)c(=O)n1N [Metribuzin]
collision cross section (N2) ([2]; [M+H]+): 150.5 Å² | collision cross section (N2) ([2]; [M+Na]+): 171.27 Å² | collision cross section (N2) [3]: 146.95 Å²

Cc1nn(C)c(Oc2ccccc2)c1/C=N/OCc1ccc(C(=O)OC(C)(C)C)cc1 [Fenpyroximate]
collision cross section (N2) [3]: 215.89 Å²

Cc1ccc(/N=C(/O)N(C)C)cc1Cl [Chlortoluron]
collision cross section (N2) [3]: 145.96 Å²

CN(C)C(=O)Nc1ccc(Oc2ccc(Cl)cc2)cc1 [Chloroxuron]
collision cross section (N2) [3]: 172.24 Å²

C=C[C@]1(C)C[C@@H](OC(=O)CSC(C)(C)CNC(=O)[C@H](N)C(C)C)[C@]2(C)[C@H](C)CC[C@]3(CCC(=O)[C@H]32)[C@@H](C)[C@@H]1O [Valnemulin]
collision cross section (N2) [3]: 233.3 Å²

O=C(NC(=O)c1c(F)cccc1F)Nc1ccc(OC(F)(F)C(F)OC(F)(F)F)c(Cl)c1 (centres undefined) [Novaluron]
collision cross section (N2) [3]: 196.35 Å²

FC(F)C(F)(F)OCC(Cn1cncn1)c1ccc(Cl)cc1Cl (centres undefined) [Tetraconazole]
collision cross section (N2) [3]: 174.34 Å²

Cc1ccc(-c2c(Cl)nc(C#N)n2S(=O)(=O)N(C)C)cc1 [Cyazofamid]
collision cross section (N2) [3]: 166.69 Å²

CC(C(=O)O)c1ccc2c(c1)[nH]c1ccc(Cl)cc12 (centres undefined) [Carprofen]
collision cross section (N2) [3]: 156.1 Å²

Cc1cccc(Nc2ccccc2C(=O)O)c1C [Mefenamic acid]
collision cross section (N2) [3]: 150.5 Å²

CC/C(=N\OC/C=C/Cl)C1=C(O)CC(C2CCOCC2)CC1=O (centres undefined) [Tepraloxydim]
collision cross section (N2) [3]: 184.74 Å²

CO[C@@H]1[C@@H](O[C@@H]2O[C@H](C)[C@@H](O[C@H]3C[C@@](C)(O)[C@@H](OC(=O)CC(C)C)[C@H](C)O3)[C@H](N(C)C)[C@H]2O)[C@@H](CC=O)C[C@@H](C)[C@@H](O)/C=C/C=C/C[C@@H](C)OC(=O)C[C@H]1OC(C)=O [Josamycin]
collision cross section (N2) [3]: 306.8 Å²

CNC(=O)N(C)c1nc2ccccc2s1 [Methabenzthiazuron]
collision cross section (N2) [3]: 142.47 Å²

CC1(C)OC(=O)C(OCC2CC2)=C1c1ccc(S(C)(=O)=O)cc1 [Firocoxib]
collision cross section (N2) [3]: 182.1 Å²

CCCN(CCC)C(=O)SCc1ccccc1 [Prosulfocarb]
collision cross section (N2) [3]: 156.95 Å²

C[C@H]1C[C@H]2[C@@H]3CCC4=CC(=O)C=C[C@]4(C)[C@@]3(Cl)[C@@H](O)C[C@]2(C)[C@@]1(O)C(=O)CO [Beclomethasone]
collision cross section (N2) [3]: 189.2 Å²

CC(COc1ccc(Oc2ccccc2)cc1)Oc1ccccn1 (centres undefined) [Pyriproxifen]
collision cross section (N2) [3]: 182.76 Å²

C/C(=N\C#N)N(C)Cc1ccc(Cl)nc1 [Acetamiprid]
collision cross section (N2) [3]: 150.24 Å²

C[C@]12Cc3cn[nH]c3C[C@@H]1CC[C@@H]1[C@@H]2CC[C@@]2(C)[C@H]1CC[C@]2(C)O [Stanozolol]
collision cross section (N2) [3]: 185.2 Å²

C=C1C[C@@]23CC[C@H]4[C@@](C)(CCC[C@@]4(C)C(=O)O[C@@H]4O[C@H](CO)[C@@H](O)[C@H](O)[C@H]4O)[C@@H]2CC[C@]1(O[C@@H]1O[C@H](CO)[C@@H](O)[C@H](O[C@@H]2O[C@H](CO)[C@@H](O)[C@H](O)[C@H]2O)[C@H]1O[C@@H]1O[C@H](CO)[C@@H](O)[C@H](O)[C@H]1O)C3 [Rebaudioside A]
collision cross section (N2) [3]: 299.48 Å²

CCOP(=O)(OCC)Oc1ccc([N+](=O)[O-])cc1 [Paraoxon-ethyl]
collision cross section (N2) [3]: 156.76 Å²
